# Assay results as given in patent US9796733B2, “Imidazo-pyrazine derivatives useful as soluble guanylate cyclase activators” (Merck Sharp & Dohme Corp., priority 2014, dated 2017).
# Columns and labels:
# [1] = test system: Spontaneously hypertensive rats (SHR); test: Acute efficacy in spontaneously hypertensive rats (SHR): telemetry blood pressure lowering after a single oral dose; format: in vivo, rat
# How it was run: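 Values are the maximum peak fall in systolic pressure after one oral dose (mpk), computed hourly against baseline from a vehicle dose given the day before. Rats were conscious, male, spontaneously hypertensive, with femoral-aortic telemetry recording 30 s every 10 min, 14 days post-surgery.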
# sGC α1/β1 heterodimer = molecular target: T1, sGC α1/β1 heterodimer (Homo sapiens, UniProt Q02108+Q02153); test: Cell-based sGC functional assay (CASA assay): cGMP generation in CHO-K1/sGC cells, HTRF detection; conditions: for Emax: CHO-K1, percent activation relative to standard Compound A in CHO-K1/sGC cells, read-out: % Act.; for EC50: inflection point (IP) of cGMP generation in CHO-K1/sGC cells, 4P fit, activity expressed as percentage of Compound A
# T1 construct: expressed in transfected cells; host or cells: CHO-K1 (clone #7, CHO-K1/sGC)
# T1 sequence (Q02108 1-690): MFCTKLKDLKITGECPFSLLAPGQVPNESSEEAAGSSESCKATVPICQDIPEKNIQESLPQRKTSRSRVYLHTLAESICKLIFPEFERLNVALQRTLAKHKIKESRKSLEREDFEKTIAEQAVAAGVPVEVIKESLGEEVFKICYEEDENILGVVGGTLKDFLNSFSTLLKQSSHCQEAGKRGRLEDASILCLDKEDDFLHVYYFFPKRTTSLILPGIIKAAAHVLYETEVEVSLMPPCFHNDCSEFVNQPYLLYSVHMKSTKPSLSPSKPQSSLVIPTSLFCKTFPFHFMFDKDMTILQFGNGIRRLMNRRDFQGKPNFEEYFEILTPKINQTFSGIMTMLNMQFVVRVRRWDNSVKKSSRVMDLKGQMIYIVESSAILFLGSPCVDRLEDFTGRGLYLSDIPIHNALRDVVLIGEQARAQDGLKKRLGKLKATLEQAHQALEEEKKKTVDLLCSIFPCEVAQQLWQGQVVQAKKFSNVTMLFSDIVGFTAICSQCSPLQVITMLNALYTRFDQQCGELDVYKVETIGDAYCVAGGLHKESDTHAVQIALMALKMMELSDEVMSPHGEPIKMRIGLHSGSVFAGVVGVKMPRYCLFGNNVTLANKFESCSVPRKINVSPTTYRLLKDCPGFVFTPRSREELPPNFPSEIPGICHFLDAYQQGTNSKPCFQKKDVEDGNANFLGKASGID
# T1 sequence (Q02153 1-619): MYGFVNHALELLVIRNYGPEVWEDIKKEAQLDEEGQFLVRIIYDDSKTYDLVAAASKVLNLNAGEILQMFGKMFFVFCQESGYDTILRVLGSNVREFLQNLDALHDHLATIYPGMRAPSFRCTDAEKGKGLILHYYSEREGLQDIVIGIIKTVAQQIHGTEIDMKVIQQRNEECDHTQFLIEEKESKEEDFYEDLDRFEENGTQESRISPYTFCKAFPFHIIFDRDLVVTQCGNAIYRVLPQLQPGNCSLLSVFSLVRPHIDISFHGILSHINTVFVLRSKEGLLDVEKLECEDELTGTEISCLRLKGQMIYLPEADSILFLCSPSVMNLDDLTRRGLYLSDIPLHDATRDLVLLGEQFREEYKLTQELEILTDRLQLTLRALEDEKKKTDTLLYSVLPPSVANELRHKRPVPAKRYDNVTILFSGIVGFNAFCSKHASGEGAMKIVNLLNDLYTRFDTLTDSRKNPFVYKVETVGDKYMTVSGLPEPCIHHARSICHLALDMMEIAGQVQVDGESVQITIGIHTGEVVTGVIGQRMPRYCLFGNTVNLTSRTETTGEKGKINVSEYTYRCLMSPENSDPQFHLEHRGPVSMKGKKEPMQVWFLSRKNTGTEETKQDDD
# How it was run: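 cGMP was quantified by HTRF after 1 hr, 37° C exposure of thawed CHO-K1 cells expressing sGC α1/β1 to compound, with or without 1 μM DETA-NO. IBMX (0.5 mM) blocked cGMP breakdown, and DMSO was 2.5% final. Percent of standard Compound A's maximal cGMP was fitted (4P) for inflection point.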
Structure (SMILES),"Maximum peak decrease of systolic blood pressure (SBP) in SHR, Cat. ([1]; P.O. 0.3 mpk)",Emax (sGC α1/β1 heterodimer) [%],EC50 (sGC α1/β1 heterodimer) [nM],"Maximum peak decrease of systolic blood pressure (SBP) in SHR, Cat. ([1]; P.O. 1.0 mpk)","Maximum peak decrease of systolic blood pressure (SBP) in SHR, Cat. ([1]; P.O. 3.0 mpk)"
"CC1(c2ccc(Cl)cc2)C(=O)Nc2nc(-c3cn4ccnc4c(CC4CCC4)n3)nc(N)c21 (stereo not drawn) [Example 118A, 4-amino-5-(4-chlorophenyl)-2-(8-(cyclobutylmethyl)imidazo [1,2-a]pyrazin-6-yl)-5-methyl-5H-pyrrolo[2,3-d]pyrimidin-6(7H)-one]",C (Category C=SBP in SHRs>40 mmHg),76,33,,
"CC1(c2ccc(Cl)cn2)C(=O)Nc2nc(-c3cn4ccnc4c(CCCC(F)(F)F)n3)nc(N)c21 (stereo not drawn) [Example 208A, 4-amino-5-(5-chloropyridin-2-yl)-5-methyl-2-(8-(4,4,4-trifluorobutyl)imidazo[1,2-a]pyrazin-6-yl)-5H-pyrrolo[2,3-d]pyrimidin-6(7H)-one]",C (Category C=SBP in SHRs>40 mmHg),88,36,,
"CC1(c2ccc(F)cc2)C(=O)Nc2nc(-c3cn4c(Br)cnc4c(CCC(F)(F)F)n3)nc(N)c21 (stereo not drawn) [Example 264A, 4-amino-2-(3-bromo-8-(3,3,3-trifluoropropyl)imidazo[1,2-a]pyrazin-6-yl)-5-(4-fluorophenyl)-5-methyl-5H-pyrrolo[2,3-d]pyrimidin-6(7H)-one]",,123,239,A (Category A=SBP in SHRs<20 mmHg),
"CC1(c2ccc(F)c(Cl)c2)C(=O)Nc2nc(-c3cn4ccnc4c(CCC(F)(F)F)n3)nc(N)c21 (stereo not drawn) [Example 193B, 4-amino-5-(3-chloro-4-fluorophenyl)-5-methyl-2-(8-(3,3,3-trifluoropropyl)imidazo[1,2-a]pyrazin-6-yl)-5H-pyrrolo[2,3-d]pyrimidin-6(7H)-one]",,111,355,,B (Category B=SBP in SHRs 20-40 mmHg)
"COc1cn2cc(-c3nc(N)c4c(n3)NC(=O)C4(C)c3ccc(F)cc3)nc(CCC(F)(F)C(F)(F)F)c2n1 (stereo not drawn) [Example 174A, 4-amino-5-(4-fluorophenyl)-2-(2-methoxy-8-(3,3,4,4,4-pentafluorobutyl)imidazo [1,2-a]pyrazin-6-yl)-5-methyl-5H-pyrrolo[2,3-d]pyrimidin-6(7H)-one]",,139,107,B (Category B=SBP in SHRs 20-40 mmHg),
"Nc1nc(-c2cn3ccnc3c(CCC(F)(F)F)n2)nc2c1C(c1ccc(F)cc1)(C1CC1)C(=O)N2 (stereo not drawn) [Example 194B, 4-amino-5-cyclopropyl-5-(4-fluorophenyl)-2-(8-(3,3,3-trifluoropropyl)imidazo[1,2-a]pyrazin-6-yl)-5H-pyrrolo[2,3-d]pyrimidin-6(7H)-one]",,116,268,,C (Category C=SBP in SHRs>40 mmHg)
"CC1(c2ccc(F)cn2)C(=O)Nc2nc(-c3cn4ccnc4c(CCCC(F)(F)F)n3)nc(N)c21 (stereo not drawn) [Example 210B, 4-amino-5-(5-fluoropyridin-2-yl)-5-methyl-2-(8-(4,4,4-trifluorobutyl)imidazo[1,2-a]pyrazin-6-yl)-5H-pyrrolo[2,3-d]pyrimidin-6(7H)-one]",A (Category A=SBP in SHRs<20 mmHg),97,40,,
"Nc1nc(-c2cn3ccnc3c(CCCC(F)(F)F)n2)nc2c1C(c1ccccn1)(C1CC1)C(=O)N2 (stereo not drawn) [Example 383B, 4-Amino-5-cyclopropyl-5-(pyridin-2-yl)-2-(8-(4,4,4-trifluorobutyl)imidazo[1,2-a]pyrazin-6-yl)-5H-pyrrolo[2,3-d]pyrimidin-6(7H)-one]",,137,98,B (Category B=SBP in SHRs 20-40 mmHg),
"Cc1nnc(C2(C3CC3)C(=O)Nc3nc(-c4cn5ccnc5c(CCC(F)(F)C(F)(F)F)n4)nc(N)c32)s1 (stereo not drawn) [Example 53A, 4-amino-5-cyclopropyl-5-(5-methyl-1,3,4-thiadiazol-2-yl)-2-(8-(3,3,4,4,4-pentafluorobutyl)imidazo[1,2-a]pyrazin-6-yl)-5H-pyrrolo[2,3-d]pyrimidin-6(7H)-one]",,104,132,,C (Category C=SBP in SHRs>40 mmHg)
"CCCCc1nc(-c2nc(N)c3c(n2)NC(=O)C3(c2ccc(Cl)cc2)C2CC2)cn2ccnc12 (stereo not drawn) [Example 332B, 4-amino-2-(8-butylimidazo[1,2-a]pyrazin-6-yl)-5-(4-chlorophenyl)-5-cyclopropyl-5H-pyrrolo[2,3-d]pyrimidin-6(7H)-one]",B (Category B=SBP in SHRs 20-40 mmHg),141,30,,
"Nc1nc(-c2cn3ccnc3c(CCCC(F)(F)F)n2)nc2c1C(c1ccc(C(F)(F)F)cn1)(C1CC1)C(=O)N2 (stereo not drawn) [Example 219A, 4-amino-5-cyclopropyl-2-(8-(4,4,4-trifluorobutyl)imidazo[1,2-a]pyrazin-6-yl)-5-(5-(trifluoromethyl)pyridin-2-yl)-5H-pyrrolo[2,3-d]pyrimidin-6(7H)-one]",,124,53,B (Category B=SBP in SHRs 20-40 mmHg),
"CC1(C)C(=O)Nc2nc(-c3cn4ccnc4c(Cc4ccccc4F)n3)nc(N)c21 [Example 70, 4-amino-2-(8-(2-fluorobenzyl)imidazo[1,2-a]pyrazin-6-yl)-5,5-dimethyl-5H-pyrrolo[2,3-d]pyrimidin-6(7H)-one]",B (Category B=SBP in SHRs 20-40 mmHg),109,21,,
"CC1(c2ccc(F)cc2F)C(=O)Nc2nc(-c3cn4ccnc4cn3)nc(N)c21 (stereo not drawn) [Example 139A, 4-amino-5-(2,4-difluorophenyl)-2-(imidazo[1,2-a]pyrazin-6-yl)-5-methyl-5H-pyrrolo[2,3-d]pyrimidin-6(7H)-one]",,118,222,,C (Category C=SBP in SHRs>40 mmHg)
"Nc1nc(-c2cn3ccnc3c(CCC(F)(F)F)n2)nc2c1C(c1ccc(Cl)cc1)(C1CC1)C(=O)N2 (stereo not drawn) [Example 198B, 4-amino-5-(4-chlorophenyl)-5-cyclopropyl-2-(8-(3,3,3-trifluoropropyl)imidazo[1,2-a]pyrazin-6-yl)-5H-pyrrolo[2,3-d]pyrimidin-6(7H)-one]",,112,492,B (Category B=SBP in SHRs 20-40 mmHg),
"CC1(c2ccc(F)cc2)C(=O)Nc2nc(-c3cn4ccnc4c(CCC(F)(F)F)n3)nc(N)c21 (stereo not drawn) [Example 184A, 4-amino-5-(4-fluorophenyl)-5-methyl-2-(8-(3,3,3-trifluoropropyl)imidazo[1,2-a]pyrazin-6-yl)-5H-pyrrolo[2,3-d]pyrimidin-6(7H)-one]",,134,176,B (Category B=SBP in SHRs 20-40 mmHg),
"Nc1nc(-c2cn3ccnc3c(CCCC(F)(F)F)n2)nc2c1C(c1cc(C(F)(F)F)ccn1)(C1CC1)C(=O)N2 (single isomer, unassigned) [Example 354B, 4-amino-5-cyclopropyl-2-(8-(4,4,4-trifluorobutyl)imidazo[1,2-a]pyrazin-6-yl)-5-(4-(trifluoromethyl)pyridin-2-yl)-5H-pyrrolo[2,3-d]pyrimidin-6(7H)-one]",,137,170,A (Category A=SBP in SHRs<20 mmHg),
